Data: patent US7109193B2, “Tricyclic diazepines tocolytic oxytocin receptor antagonists” (Wyeth, priority 2001, dated 2006)

How the values were obtained:
[1] = molecular target: T1, human vasopressin V1a receptor subtype (Homo sapiens, UniProt P37288); test: Vasopressin binding in Chinese Hamster Ovary cell membranes expressing human vasopressin V1a subtype receptors; details: 100 nM, CHO cell membranes, [3H]Manning ligand, values without parentheses
T1 construct: host or cells: CHO cells (pZeoSV vector for the Thibonnier line)
T1 sequence (P37288 whole entry): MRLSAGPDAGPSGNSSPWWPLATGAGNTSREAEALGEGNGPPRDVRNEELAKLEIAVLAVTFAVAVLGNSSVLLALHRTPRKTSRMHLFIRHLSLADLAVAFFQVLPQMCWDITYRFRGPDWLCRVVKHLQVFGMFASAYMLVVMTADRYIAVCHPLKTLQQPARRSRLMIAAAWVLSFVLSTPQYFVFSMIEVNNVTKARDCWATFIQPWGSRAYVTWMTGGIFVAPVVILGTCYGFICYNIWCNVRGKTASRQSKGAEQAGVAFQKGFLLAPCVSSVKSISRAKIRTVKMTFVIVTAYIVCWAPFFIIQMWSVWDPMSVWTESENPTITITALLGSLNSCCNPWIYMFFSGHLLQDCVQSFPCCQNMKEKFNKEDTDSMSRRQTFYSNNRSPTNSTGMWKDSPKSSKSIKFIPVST
Method in brief: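 Membranes from CHO cells expressing human V1a receptor were incubated with [3H]Manning ligand (added as 20 μL of 8 nM) in pH 7.4 Tris buffer with MgCl2, BSA and protease inhibitors, 60 min at room temperature. Bound radioactivity was counted after filtration; values are percent inhibition at a stated concentration or IC50.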

SMILES | melting point [°C] | inhibition at 0.1 µM [1] [%] | V1a % inhibition @ 100 nM [1] [%]
COc1ccccc1-c1ccc(C(=O)N2Cc3ccc(C(=O)N4CCC[C@H]4CN4CCCC4)n3Cc3ccccc32)cc1OC [Example 269, {10-[(2,2′-Dimethoxy[1,1′-biphenyl]-4-yl)carbonyl]-10,11-dihydro-5H-pyrrolo[2,1-c][1,4]benzodiazepin-3-yl}[(2S)-2-(1-pyrrolidinylmethyl)pyrrolidinyl]methanone] | – | – | −1
CN(C)[C@@H]1CCN(C(=O)c2ccc3n2Cc2ccccc2N(C(=O)c2ccc(-c4cccc5ccccc45)cc2Cl)C3)C1 [Example 277, {10-[2-Chloro-4-(1-naphthyl)benzoyl]-10,11-dihydro-5H-pyrrolo[2,1-c][1,4]benzodiazepin-3-yl}[(3R)-3-(dimethylamino)pyrrolidinyl]methanone] | – | – | 8
Cc1cc(C(=O)N2Cc3ccc(C(=O)NCCCN(C)C)n3Cc3ccccc32)ccc1-c1ccccc1C(F)(F)F [Example 84, N-[3-(Dimethylamino)propyl]-10-{[2-methyl-2′-(trifluoromethyl)[1,1′-biphenyl]-4-yl]carbonyl}-10,11-dihydro-5H-pyrrolo[2,1-c][1 .4]benzodiazepine-3-carboxamide] | – | – | 1
COc1cccc(-c2cc(OC)c(C(=O)N3Cc4ccc(C(=O)N5CCN(CCN6CCOCC6)CC5)n4Cc4ccccc43)cc2Cl)c1 [Example 212, {10-[(6-Chloro-3,3′-dimethoxy[1,1′-biphenyl]-4-yl)carbonyl]-10,11-dihydro-5H-pyrrolo[2,1-c][1,4]benzodiazepin-3-yl}{4-[2-(4-morpholinyl)ethyl]-1-piperazinyi}methanone] | – | – | 35
Cc1ccccc1-c1ccc(C(=O)N2Cc3ccc(C(=O)N4CCC[C@H]4CN4CCCC4)n3Cc3ccccc32)cc1 [Example 264, {10-[(2′-Methyl[1,1′-biphenyl]-4-yl)carbonyl]-10,11-dihydro-5H-pyrrolo[2,1-c][1,4]benzodiazepin-3-yl}[(2S)-2-(1-pyrrolidinylmethyl)pyrrolidinyl]methanone] | – | – | 67
COc1ccccc1-c1ccc(C(=O)N2Cc3ccc(C(=O)N4CC[C@@H](N(C)C)C4)n3Cc3ccccc32)cc1 [Example 279, [(3R)-3-(Dimethylamino)pyrrolidinyl]{10-[(2′-methoxy[1,1′-biphenyl]-4-yl)carbonyl]-10,11-dihydro-5H-pyrrolo[2,1-c][1,4]benzodiazepin-3-yl}methanone] | – | – | 39
COc1cccc(-c2cc(OC)c(C(=O)N3Cc4ccc(C(=O)N5CC[C@@H](N(C)C)C5)n4Cc4ccccc43)cc2Cl)c1 [Example 275, {10-[(6-Chloro-3,3′-dimethoxy[1,1′-biphenyl]-4-yl)carbonyl]-10,11-dihydro-5H-pyrrolo[2,1-c][1,4]benzodiazepin-3-yl}[(3R)-3-(dimethylamino)pyrrolidinyl]methanone] | – | – | 9

Further lines, with some results ahead:

melting point [°C] | inhibition at 0.1 µM [1] [%] | SMILES | V1a % inhibition @ 100 nM [1] [%]
55 to 64 | -8 | Cc1cc(C(=O)N2Cc3ccc(C(=O)N(CCCN(C)C)CCCN(C)C)n3Cc3ccccc32)ccc1-c1ccccc1C(F)(F)F [Example 3, 10-[(2-Methyl-2′-trifluoromethyl-[1,1′-biphenyl]-4-yl)-carbonyl]-10,11-dihydro-5H-pyrrolo[2,1-c][1,4]benzodiazepine-3-carboxylic acid bis-(3-dimethylamino-propyl)-amide] | –
– | 20 | COc1cccc(-c2ccc(C(=O)N3Cc4ccc(C(=O)NCCCn5ccnc5)n4Cc4ccccc43)cc2OC)c1 [Example 133, 10-[(2,3′-Dimethoxy[1,1′-biphenyl]4-yl)carbonyl]-N-[3-(1H-imidazol-1-yl)propyl]-10,11-dihydro-5H-pyrrolo[2,1-c][1,4]benzodiazepine-3-carboxamide] | –
– | 47 | Cc1ccccc1-c1ccc(C(=O)N2Cc3ccc(C(=O)N4CCC(N5CCCC5)CC4)n3Cc3ccccc32)cc1C [Example 138, {10-[(2,2′-Dimethyl[1,1′-biphenyl]-4-yl)carbonyl]-10,11-dihydro-5H-pyrrolo[2,1-c][1,4]benzodiazepin-3-yl}[4-(1-pyrrolidinyl)-1-piperidinyl]methanone] | –
– | 4 | COc1ccccc1-c1ccc(C(=O)N2Cc3ccc(C(=O)N4CCC(N5CCCC5)CC4)n3Cc3ccccc32)cc1C [Example 137, {10-[(2′-Methoxy-2-methyl[1,1′-biphenyl]-4-yl)carbonyl]-10,11-dihydro-5H-pyrrolo[2,1-c][1,4]benzodiazepin-3-yl}[4-(1-pyrrolidinyl)-1-piperidinyl]methanone] | –
– | 3 | O=C(c1ccc2n1Cc1ccccc1N(C(=O)c1ccc(-c3cccc4ccccc34)cc1Cl)C2)N1CCC(N2CCCC2)CC1 [Example 147, {10-[2-Chloro-4-(1-naphthyl)benzoyl]-10,11-dihydro-5H-pyrrolo[2,1-c][1,4]benzodiazepin-3-yl}[4-(1-pyrrolidinyl)-1-piperidinyl]methanone] | –
– | 8 | Cc1cc(C(=O)N2Cc3ccc(C(=O)N4CCC(N5CCCCC5)CC4)n3Cc3ccccc32)ccc1-c1ccccc1C(F)(F)F [Example 122, {10-[(2-Methyl-2′-(trifluoromethyl) -[1,1′-biphenyl]-4-yl)carbonyl]-10,11-dihydro-5H -pyrrolo[2,1-c][1,4]benzodiazepin-3-yl}[4-(1-piperidinyl)-1-piperidinyl]methanone] | –
– | 52 | COc1cccc(-c2ccc(C(=O)N3Cc4ccc(C(=O)N(C)CCCN(C)C)n4Cc4ccccc43)cc2OC)c1 [Example 108, 10-[(2,3′-Dimethoxy[1,1′-biphenyl]-4-yl)carbonyl]-N-[3-(dimethylamino)propyl]-N-methyl-10,11-dihydro-5H-pyrrolo[2,1-c][1,4]benzodiazepine-3-carboxamide] | –
– | 4 | COc1cccc(-c2cc(OC)c(C(=O)N3Cc4ccc(C(=O)NCCCn5ccnc5)n4Cc4ccccc43)cc2Cl)c1 [Example 130, 10-[(6-Chloro-3,3′-dimethoxy[1,1′-biphenyl]-4-yl)carbonyl]-N-[3-(1H-imidazol-1-yl)propyl]-10,11-dihydro-5H-pyrrolo[2,1-c][1,4]benzodiazepine-3-carboxamide] | –
